In ChEMBL document CHEMBL4257522, “Synthesis and preliminary anti-inflammatory and anti-bacterial evaluation of some diflunisal aza-analogs” (Medchemcomm, 2018):
Active and inactive are the calls of the source. No cut-off for these calls is given here.

Assays:
[1] = system: Pseudomonas aeruginosa; experiment: Potentiation of methicillin-induced antibacterial activity against Pseudomonas aeruginosa ATCC BAA-2108 assessed as minimum modulatory concentration up to 32 uM measured after 16 hrs in presence of MIC/4 methicillin; assay type: functional; conditions: ATCC BAA-2108, 16 h, read-out: MEC
[2] = system: Enterococcus faecium; experiment: Potentiation of methicillin-induced antibacterial activity against Enterococcus faecium ATCC 700221 assessed as minimum modulatory concentration up to 32 uM measured after 16 hrs in presence of MIC/4 methicillin; assay type: functional; conditions: ATCC 700221, 16 h, read-out: MEC
[3] = system: Pseudomonas aeruginosa; experiment: Potentiation of ciprofloxacin-induced antibacterial activity against Pseudomonas aeruginosa ATCC BAA-2108 assessed as minimum modulatory concentration up to 32 uM measured after 16 hrs in presence of MIC/4 ciprofloxacin; assay type: functional; conditions: ATCC BAA-2108, 16 h, read-out: MEC
[4] = system: Escherichia coli; experiment: Toxicity in Escherichia coli ATCC 43894 up to 32 uM measured after 16 hrs; assay type: organism-based
[5] = system: Streptococcus pyogenes; experiment: Potentiation of ciprofloxacin-induced antibacterial activity against Streptococcus pyogenes ATCC 14289 assessed as minimum modulatory concentration up to 32 uM measured after 16 hrs in presence of MIC/4 ciprofloxacin; assay type: functional; conditions: ATCC 14289, 16 h, read-out: MEC
[6] = system: Escherichia coli; experiment: Potentiation of ciprofloxacin-induced antibacterial activity against Escherichia coli ATCC 43894 assessed as minimum modulatory concentration up to 32 uM measured after 16 hrs in presence of MIC/4 ciprofloxacin; assay type: functional; conditions: ATCC 43894, 16 h, read-out: MEC
[7] = system: Enterococcus faecium; experiment: Potentiation of geneticin-induced antibacterial activity against Enterococcus faecium ATCC 700221 assessed as minimum modulatory concentration up to 32 uM measured after 16 hrs in presence of MIC/4 geneticin; assay type: functional; conditions: ATCC 700221, 16 h, read-out: MEC
[8] = system: Macrophage cell line; experiment: Antiinflammatory activity in human PBMC-differentiated macrophages assessed as inhibition of LPS-induced prostaglandin production at 0.01 to 10 uM measured after 24 hrs by ELISA; assay type: functional, cell-based
[9] = system: Klebsiella pneumoniae; experiment: Toxicity in Klebsiella pneumoniae ATCC 13883 up to 32 uM measured after 16 hrs; assay type: organism-based
[10] = system: Pseudomonas aeruginosa; experiment: Toxicity in Pseudomonas aeruginosa ATCC BAA-2108 up to 32 uM measured after 16 hrs; assay type: organism-based; conditions: in vitro
[11] = system: Staphylococcus aureus; experiment: Potentiation of erythromycin-induced antibacterial activity against Staphylococcus aureus ATCC 33592 assessed as minimum modulatory concentration up to 32 uM measured after 16 hrs in presence of MIC/4 erythromycin; assay type: functional; conditions: ATCC 33592, 16 h, read-out: MEC
[12] = system: Enterococcus faecium; experiment: Toxicity in Enterococcus faecium ATCC 700221 up to 32 uM measured after 16 hrs; assay type: organism-based; conditions: in vitro
[13] = system: Escherichia coli; experiment: Potentiation of geneticin-induced antibacterial activity against Escherichia coli ATCC 43894 assessed as minimum modulatory concentration up to 32 uM measured after 16 hrs in presence of MIC/4 geneticin; assay type: functional; conditions: ATCC 43894, 16 h, read-out: MEC
[14] = system: Enterococcus faecium; experiment: Potentiation of erythromycin-induced antibacterial activity against Enterococcus faecium ATCC 700221 assessed as minimum modulatory concentration up to 32 uM measured after 16 hrs in presence of MIC/4 erythromycin; assay type: functional; conditions: ATCC 700221, 16 h, read-out: MEC
[15] = system: Pseudomonas aeruginosa; experiment: Potentiation of tetracycline-induced antibacterial activity against Pseudomonas aeruginosa ATCC BAA-2108 assessed as minimum modulatory concentration up to 32 uM measured after 16 hrs in presence of MIC/4 tetracycline; assay type: functional; conditions: ATCC BAA-2108, 16 h, read-out: MEC
[16] = system: Enterococcus faecium; experiment: Potentiation of ciprofloxacin-induced antibacterial activity against Enterococcus faecium ATCC 700221 assessed as minimum modulatory concentration up to 32 uM measured after 16 hrs in presence of MIC/4 ciprofloxacin; assay type: functional; conditions: ATCC 700221, 16 h, read-out: MEC
[17] = system: Escherichia coli; experiment: Potentiation of methicillin-induced antibacterial activity against Escherichia coli ATCC 43894 assessed as minimum modulatory concentration up to 32 uM measured after 16 hrs in presence of MIC/4 methicillin; assay type: functional; conditions: ATCC 43894, 16 h, read-out: MEC
[18] = system: Streptococcus pyogenes; experiment: Potentiation of geneticin-induced antibacterial activity against Streptococcus pyogenes ATCC 14289 assessed as minimum modulatory concentration up to 32 uM measured after 16 hrs in presence of MIC/4 geneticin; assay type: functional; conditions: ATCC 14289, 16 h, read-out: MEC
[19] = system: Pseudomonas aeruginosa; experiment: Potentiation of erythromycin-induced antibacterial activity against Pseudomonas aeruginosa ATCC BAA-2108 assessed as minimum modulatory concentration up to 32 uM measured after 16 hrs in presence of MIC/4 erythromycin; assay type: functional; conditions: ATCC BAA-2108, 16 h, read-out: MEC
[20] = system: Pseudomonas aeruginosa; experiment: Potentiation of geneticin-induced antibacterial activity against Pseudomonas aeruginosa ATCC BAA-2108 assessed as minimum modulatory concentration up to 32 uM measured after 16 hrs in presence of MIC/4 geneticin; assay type: functional; conditions: ATCC BAA-2108, 16 h, read-out: MEC
[21] = system: Klebsiella pneumoniae; experiment: Potentiation of tetracycline-induced antibacterial activity against Klebsiella pneumoniae ATCC 13883 assessed as minimum modulatory concentration up to 32 uM measured after 16 hrs in presence of MIC/4 tetracycline; assay type: functional; conditions: ATCC 13883, 16 h, read-out: MEC
[22] = system: Macrophage cell line; experiment: Cytotoxicity against human PBMC-differentiated macrophages treated for 24 hrs followed by compound washout and measured after 48 hrs by MTT assay; assay type: cell-based
[23] = system: Staphylococcus aureus; experiment: Potentiation of geneticin-induced antibacterial activity against Staphylococcus aureus ATCC 33592 assessed as minimum modulatory concentration up to 32 uM measured after 16 hrs in presence of MIC/4 geneticin; assay type: functional; conditions: ATCC 33592, 16 h, read-out: MEC
[24] = system: Klebsiella pneumoniae; experiment: Potentiation of erythromycin-induced antibacterial activity against Klebsiella pneumoniae ATCC 13883 assessed as minimum modulatory concentration up to 32 uM measured after 16 hrs in presence of MIC/4 erythromycin; assay type: functional; conditions: ATCC 13883, 16 h, read-out: MEC
[25] = system: Escherichia coli; experiment: Potentiation of tetracycline-induced antibacterial activity against Escherichia coli ATCC 43894 assessed as minimum modulatory concentration up to 32 uM measured after 16 hrs in presence of MIC/4 tetracycline; assay type: functional; conditions: ATCC 43894, 16 h, read-out: MEC
[26] = system: Staphylococcus aureus; experiment: Potentiation of ciprofloxacin-induced antibacterial activity against Staphylococcus aureus ATCC 33592 assessed as minimum modulatory concentration up to 32 uM measured after 16 hrs in presence of MIC/4 ciprofloxacin; assay type: functional; conditions: ATCC 33592, 16 h, read-out: MEC
[27] = system: Klebsiella pneumoniae; experiment: Potentiation of ciprofloxacin-induced antibacterial activity against Klebsiella pneumoniae ATCC 13883 assessed as minimum modulatory concentration up to 32 uM measured after 16 hrs in presence of MIC/4 ciprofloxacin; assay type: functional; conditions: ATCC 13883, 16 h, read-out: MEC
[28] = system: Macrophage cell line; experiment: Antiinflammatory activity in human PBMC-differentiated macrophages assessed as inhibition of LPS-induced IL-8 production at 0.01 to 10 uM measured after 24 hrs by ELISA; assay type: functional, cell-based
[29] = system: Macrophage cell line; experiment: Induction of prostaglandin production in human PBMC-differentiated macrophages after 24 hrs by ELISA; assay type: cell-based
[30] = system: Macrophage cell line; experiment: Induction of IL-1beta production in human PBMC-differentiated macrophages after 24 hrs by ELISA; assay type: cell-based
[31] = system: Streptococcus pyogenes; experiment: Potentiation of erythromycin-induced antibacterial activity against Streptococcus pyogenes ATCC 14289 assessed as minimum modulatory concentration up to 32 uM measured after 16 hrs in presence of MIC/4 erythromycin; assay type: functional; conditions: ATCC 14289, 16 h, read-out: MEC
[32] = system: Macrophage cell line; experiment: Induction of TNFalpha production in human PBMC-differentiated macrophages after 24 hrs by ELISA; assay type: cell-based
[33] = system: Streptococcus pyogenes; experiment: Potentiation of methicillin-induced antibacterial activity against Streptococcus pyogenes ATCC 14289 assessed as minimum modulatory concentration up to 32 uM measured after 16 hrs in presence of MIC/4 methicillin; assay type: functional; conditions: ATCC 14289, 16 h, read-out: MEC

Cc1cc(C(=O)O)c(O)c(Cc2ccccc2)n1
minimal effective concentration [1]: > 32 µM
minimal effective concentration [2]: > 32 µM
minimal effective concentration [3]: > 32 µM
Activity [4]: Non-Toxic
minimal effective concentration [5]: > 32 µM
minimal effective concentration [6]: > 32 µM
minimal effective concentration [7]: > 32 µM
inhibition [8]: inactive
Activity [9]: Non-Toxic
Activity [10]: Non-Toxic
minimal effective concentration [11]: > 32 µM
Activity [12]: Non-Toxic
minimal effective concentration [13]: > 32 µM
minimal effective concentration [14]: > 32 µM
minimal effective concentration [15]: > 32 µM
minimal effective concentration [16]: > 32 µM
minimal effective concentration [17]: > 32 µM
minimal effective concentration [18]: > 32 µM
minimal effective concentration [19]: > 32 µM
minimal effective concentration [20]: > 32 µM
minimal effective concentration [21]: > 32 µM
IC50 [22]: > 100 µM
minimal effective concentration [23]: > 32 µM
minimal effective concentration [24]: > 32 µM
minimal effective concentration [25]: > 32 µM
minimal effective concentration [26]: > 32 µM
minimal effective concentration [27]: > 32 µM
inhibition [28]: inactive
Activity [29]: Non-Toxic
Activity [30]: Non-Toxic
minimal effective concentration [31]: > 32 µM
Activity [32]: Non-Toxic
minimal effective concentration [33]: > 32 µM
